We go through twelve compounds from patent US8518373B2, “Ionic and non-ionic radiographic contrast agents for use in combined X-ray and nuclear magnetic resonance diagnostics” (priority 2001, dated 2013).

Like-named read-outs stand apart in the source and are kept apart here.

The conditions of series [1]: cited from earlier work.
The conditions of series [2]: cited from earlier work. The source holds these as a separate data set.
For series [3] the following is noted: rabbit, in vivo, cited from earlier work.
The nature of series [4]: residual water signal after irradiating the amido proton signal, effect of temperature, 200 mM Iopamidol. The following applies: pH 6.74, 2.1 T, irradiation at 9.4 ppm, attenuation 300 dB. The procedure: A 200 mM Iopamidol solution at pH=6.74 was investigated at 2.1 T magnetic field intensity (JEOL EX-90 spectrometer). After irradiating the amido proton signal at 9.4 ppm, with attenuation of 300 dB, the area under the water signal was measured. Considering 100 the area of the water signal with irradiation at −9.4 ppm, a drastic reduction is observed following irradiation of the amido protons. The effect increases as temperature increase so that: […]

The nature of series [5]: residual water signal after irradiating the amido protons, effect of radiofrequency field intensity, 200 mM Iopamidol. To be noted: for % residual signal: 200 mM, pH 6.29, 2.1 T, 39° C., rf field at 9.4 ppm. How it is done: A 200 Mm Iopamidol solution at pH=6.29 was investigated at 2.1 T magnetic field intensity and at a temperature of 39° C. (JEOL EX-90 spectrometer). Considering 100 the area of the water signal with irradiation at −9.4 ppm, its decrease (expressed as % residual signal) was evaluated in the presence of a rf field tuned at 9.4 ppm (signal of the amido protons).

The conditions of series [6]: dog, in vivo; cited from earlier work.
Series [7] in a line: Z-spectra and Saturation transfer (ST) profiles of aqueous solutions in MT imaging. The following applies: 7 T, pH 7.4, 312 K, 30 mM (Gd-DTPA 1 mM). The procedure: The Magnetization Transfer or, more precisely, the amount of saturation transfer (ST) registered in a MT based MRI procedure following irradiation of the mobile proton(s), is conveniently quantified as ST % according to the following equation (2) ST %=100×(1−Ms/M0) (2)
In a first series, tests were conducted at physiological pH and temperature. A second series of tests were conducted at acidic pH.
In the first series of tests, Z-spectra and corresponding Saturation transfer (ST) profiles were measured at 7 T, pH 7.4 and 312 K, for aqueous solutions of iopamidol (30 mM), L-amino acids alanine, glutamine and lysine (each 30 mM), Gd-DTPA (1 mM) and Iopamidol (30 mM).

For `O=C1NCCN1` [2-Imidazolidinone], the LD50 intraperitoneal mouse in series [1] (intraperitoneal, mouse) is on record as 500 mg/kg.
For the compound `O=C1CC(=O)NC(=O)N1` [Barbituric Acid], the “LD50 orally in male rats” value in series [2] (oral, male rats) was more than 5000 mg/kg.
Consider `N=C(N)N` [Guanidine], for which, in series [3] (po), the “LD orally in rabbits” value is recorded as 500 mg/kg.
For `C[C@H](O)C(=O)Nc1c(I)c(C(=O)NC(CO)CO)c(I)c(C(=O)NC(CO)CO)c1I` [Iopamidol], the “% residual signal” value in series [4] (15° C.) was 39%; in series [4] (25° C.), 30%; in series [4] (39° C.) it was 24%; in series [5] (attenuation 300 dB), 15%; in series [5] (attenuation 400 dB), 40%. Moreover, in series [5] (2.1 T magnetic field), the “reduction of the signal from water in MRI saturation transfer” value is 80%. In addition, in series [1] (mouse, in vivo), the LD50 in mice is on record as 44.5 g/kg. In addition, the LD50 in rats in series [2] (rat, in vivo) was 28.2 g/kg. For the same compound, the LD50 in rabbits in series [3] was 19600 mg/kg. The LD50 in dogs in series [6] is 34700 mg/kg.
`N=C(N)NCCC[C@H](N)C(=O)O` [L-Arginine]: the LD50 intravenous mouse in series [1] (mouse, in vivo, iv) is listed as 2030 mg/kg.
For the compound `C[C@H](N)C(=O)O` [L-alanine], the “Saturation Transfer Value pH = 7.4” value is given as 0 in series [7] and “failed to provide any detectable signals” in series [7] (listed as alanine).
Turning to `NCCCC[C@H](N)C(=O)O` [L-lysine], the “Saturation Transfer Value pH = 7.4” value is given as 0 in series [7] and “failed to provide any detectable signals” in series [7] (listed as lysine).
Take `CC(=O)Nc1c(I)c(C(=O)N[C@H]2C(O)O[C@H](CO)[C@@H](O)[C@@H]2O)c(I)c(N(C)C(C)=O)c1I` (stereo partly drawn) [Metrizamide]: the “LD50 i.v. in mice” value was 17300 mg/kg in series [1] (i.v., mice (Aspelin)); 18600 mg/kg in series [1] (i.v., mice (Salvenson)); 11500 mg/kg in series [1] (i.v., mice (Sovak)); 15000 mg/kg in series [1] (i.v., mice (Torsten)).
With `O=C(O)C1CCCCN1` (stereo not drawn) [Pipecolinic. Acid], the LD50 intravenous mouse in series [1] (intravenous, mouse) was 2200 mg/kg.
Turning to `CC(=O)Nc1c(I)c(NC(C)=O)c(I)c(C(=O)[O-])c1I.[Na+]` [Sodium diatrizoate], the “LD50 i.v. in rats” value in series [2] (i.v., rats (Langecker)) was 14700 mg/kg.
On to `Cc1cn([C@H]2C[C@H](O)[C@@H](CO)O2)c(=O)[nH]c1=O` [Thymidine], for which the LD50 intraperitoneal mouse in series [1] (mouse, in vivo, ip) is recorded as 2512 mg/kg.
As to Iopromide, the LD50 in mice in series [1] (mice, i.v.) is 16.5 g iodine/kg body weight. Further, in series [2] (rats, i.v.), the LD50 in rats is given as 11.4 g iodine/kg body weight.
